Laboratory results taken from the supplement of paper PMC10307832.

Experiments:
Experiment in all cases: relative viability (nuclei count vs DMSO), 5 days (fraction); higher = more cells survive
VX-11e = compound: CC1=CN=C(N=C1C2=CNC(=C2)C(=O)N[C@H](CO)C3=CC(=CC=C3)Cl)NC4=C(C=C(C=C4)F)Cl [VX-11e]
Method in brief: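 Nuclei counted with MetaXpress define viability as the ratio of treated to vehicle wells, given as a median across plates. The lung cancer cell lines were in 1536-well plates, pinned with five √10-spaced library-drug doses and imaged at 4× after 5 days and Hoechst staining. Plates passed with control CV below 25% and at least one doubling.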

VX-11e + Trametinib = compound: CC1=CN=C(N=C1C2=CNC(=C2)C(=O)N[C@H](CO)C3=CC(=CC=C3)Cl)NC4=C(C=C(C=C4)F)Cl [VX-11e] + CC(=O)Nc1cccc(-n2c(=O)n(C3CC3)c(=O)c3c(Nc4ccc(I)cc4F)n(C)c(=O)c(C)c32)c1 [Trametinib] (partner 0.02 µM)
Method in brief: (§1)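 Relative viability divides the nuclei count in treated wells by that in vehicle wells. Lung cancer cell lines were seeded in 1536-well plates, dosed by pin tool the next day, and fixed and stained after 5 days in one step with final 0.05% Triton X-100, 1% formaldehyde and 1 ug/ml Hoechst. Dosing was a single drug or a fixed anchor-drug dose plus five library-drug doses (not always all listed) in √10 steps, and values are medians of duplicate plates imaged at 4×.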

VX-11e + Palbociclib = compound: CC1=CN=C(N=C1C2=CNC(=C2)C(=O)N[C@H](CO)C3=CC(=CC=C3)Cl)NC4=C(C=C(C=C4)F)Cl [VX-11e] + CC(=O)c1c(C)c2cnc(Nc3ccc(N4CCNCC4)cn3)nc2n(C2CCCC2)c1=O [Palbociclib] (partner 0.5 µM)
Method in brief: as §1

VX-11e + Luminespib = compound: CC1=CN=C(N=C1C2=CNC(=C2)C(=O)N[C@H](CO)C3=CC(=CC=C3)Cl)NC4=C(C=C(C=C4)F)Cl [VX-11e] + CCNC(=O)c1noc(-c2cc(C(C)C)c(O)cc2O)c1-c1ccc(CN2CCOCC2)cc1 [Luminespib] (partner 0.01 µM)
Method in brief: as §1

VX-11e + OSI-027 = compound: CC1=CN=C(N=C1C2=CNC(=C2)C(=O)N[C@H](CO)C3=CC(=CC=C3)Cl)NC4=C(C=C(C=C4)F)Cl [VX-11e] + COc1cccc2cc(-c3nc([C@H]4CC[C@H](C(=O)O)CC4)n4ncnc(N)c34)[nH]c12 [OSI-027] (partner 0.5 µM)
Method in brief: as §1

VX-11e + Tozasertib = compound: CC1=CN=C(N=C1C2=CNC(=C2)C(=O)N[C@H](CO)C3=CC(=CC=C3)Cl)NC4=C(C=C(C=C4)F)Cl [VX-11e] + Cc1cc(Nc2cc(N3CCN(C)CC3)nc(Sc3ccc(NC(=O)C4CC4)cc3)n2)n[nH]1 [Tozasertib] (partner 0.1 µM)
Method in brief: as §1

VX-11e + Dasatinib = compound: CC1=CN=C(N=C1C2=CNC(=C2)C(=O)N[C@H](CO)C3=CC(=CC=C3)Cl)NC4=C(C=C(C=C4)F)Cl [VX-11e] + Cc1nc(Nc2ncc(C(=O)Nc3c(C)cccc3Cl)s2)cc(N2CCN(CCO)CC2)n1 [Dasatinib] (partner 0.075 µM)
Method in brief: as §1

VX-11e + Phenformin = compound: CC1=CN=C(N=C1C2=CNC(=C2)C(=O)N[C@H](CO)C3=CC(=CC=C3)Cl)NC4=C(C=C(C=C4)F)Cl [VX-11e] + N=C(N)NC(=N)NCCc1ccccc1 [Phenformin] (partner 250 µM)
Method in brief: as §1

VX-11e + AZD7762 = compound: CC1=CN=C(N=C1C2=CNC(=C2)C(=O)N[C@H](CO)C3=CC(=CC=C3)Cl)NC4=C(C=C(C=C4)F)Cl [VX-11e] + NC(=O)Nc1cc(-c2cccc(F)c2)sc1C(=O)N[C@H]1CCCNC1 [AZD7762] (partner 0.2 µM)
Method in brief: as §1

VX-11e + Pemetrexed = compound: CC1=CN=C(N=C1C2=CNC(=C2)C(=O)N[C@H](CO)C3=CC(=CC=C3)Cl)NC4=C(C=C(C=C4)F)Cl [VX-11e] + Nc1nc2[nH]cc(CCc3ccc(C(=O)N[C@@H](CCC(=O)O)C(=O)O)cc3)c2c(=O)[nH]1 [Pemetrexed] (partner 0.2 µM)
Method in brief: as §1

VX-11e + Decitabine = compound: CC1=CN=C(N=C1C2=CNC(=C2)C(=O)N[C@H](CO)C3=CC(=CC=C3)Cl)NC4=C(C=C(C=C4)F)Cl [VX-11e] + Nc1ncn([C@H]2C[C@H](O)[C@@H](CO)O2)c(=O)n1 [Decitabine] (partner 2 µM)
Method in brief: as §1

VX-11e + Vorinostat = compound: CC1=CN=C(N=C1C2=CNC(=C2)C(=O)N[C@H](CO)C3=CC(=CC=C3)Cl)NC4=C(C=C(C=C4)F)Cl [VX-11e] + O=C(CCCCCCC(=O)Nc1ccccc1)NO [Vorinostat] (partner 1 µM)
Method in brief: as §1

VX-11e + Olaparib = compound: CC1=CN=C(N=C1C2=CNC(=C2)C(=O)N[C@H](CO)C3=CC(=CC=C3)Cl)NC4=C(C=C(C=C4)F)Cl [VX-11e] + O=C(c1cc(Cc2n[nH]c(=O)c3ccccc23)ccc1F)N1CCN(C(=O)C2CC2)CC1 [Olaparib] (partner 8 µM)
Method in brief: as §1

VX-11e + Foretinib = compound: CC1=CN=C(N=C1C2=CNC(=C2)C(=O)N[C@H](CO)C3=CC(=CC=C3)Cl)NC4=C(C=C(C=C4)F)Cl [VX-11e] + COc1cc2c(Oc3ccc(NC(=O)C4(C(=O)Nc5ccc(F)cc5)CC4)cc3F)ccnc2cc1OCCCN1CCOCC1 [Foretinib] (partner 0.25 µM)
Method in brief: as §1

NCI-H522 gave a relative viability (VX-11e; 0.04 µM) of 0.796, a relative viability (VX-11e; 0.1265 µM) of 0.876 and a relative viability (VX-11e; 0.4 µM) of 0.738. It also gave a relative viability (VX-11e; 1.265 µM) of 0.614, a relative viability (VX-11e; 4 µM) of 0.666 and a relative viability (VX-11e + Trametinib; first compound 0.04 µM) of 0.684. The relative viability (VX-11e + Trametinib; first compound 0.1265 µM) was 0.773, the relative viability (VX-11e + Trametinib; first compound 0.4 µM) was 0.618 and the relative viability (VX-11e + Trametinib; first compound 1.265 µM) was 0.645. It also gave a relative viability (VX-11e + Trametinib; first compound 4 µM) of 0.589, a relative viability (VX-11e + Palbociclib; first compound 0.04 µM) of 0.782 and a relative viability (VX-11e + Palbociclib; first compound 0.1265 µM) of 0.924. It also gave a relative viability (VX-11e + Palbociclib; first compound 0.4 µM) of 0.861, a relative viability (VX-11e + Palbociclib; first compound 1.265 µM) of 0.717 and a relative viability (VX-11e + Palbociclib; first compound 4 µM) of 0.733. It also gave a relative viability (VX-11e + Luminespib; first compound 0.04 µM) of 1.23, a relative viability (VX-11e + Luminespib; first compound 0.1265 µM) of 1.28 and a relative viability (VX-11e + Luminespib; first compound 0.4 µM) of 1.05. For the same cell line, the relative viability (VX-11e + Luminespib; first compound 1.265 µM) was 0.82, the relative viability (VX-11e + Luminespib; first compound 4 µM) was 0.832 and the relative viability (VX-11e + OSI-027; first compound 0.04 µM) was 0.615. For the same cell line, the relative viability (VX-11e + OSI-027; first compound 0.1265 µM) was 0.683, the relative viability (VX-11e + OSI-027; first compound 0.4 µM) was 0.556 and the relative viability (VX-11e + OSI-027; first compound 1.265 µM) was 0.613. For the same cell line, the relative viability (VX-11e + OSI-027; first compound 4 µM) was 0.572, the relative viability (VX-11e + Tozasertib; first compound 0.04 µM) was 0.532 and the relative viability (VX-11e + Tozasertib; first compound 0.1265 µM) was 0.56. It also gave a relative viability (VX-11e + Tozasertib; first compound 0.4 µM) of 0.553, a relative viability (VX-11e + Tozasertib; first compound 1.265 µM) of 0.467 and a relative viability (VX-11e + Tozasertib; first compound 4 µM) of 0.503. It also gave a relative viability (VX-11e + Dasatinib; first compound 0.04 µM) of 0.647, a relative viability (VX-11e + Dasatinib; first compound 0.1265 µM) of 0.849 and a relative viability (VX-11e + Dasatinib; first compound 0.4 µM) of 0.719. For the same cell line, the relative viability (VX-11e + Dasatinib; first compound 1.265 µM) was 0.72, the relative viability (VX-11e + Dasatinib; first compound 4 µM) was 0.605 and the relative viability (VX-11e + Phenformin; first compound 0.04 µM) was 0.609. It also gave a relative viability (VX-11e + Phenformin; first compound 0.1265 µM) of 0.621, a relative viability (VX-11e + Phenformin; first compound 0.4 µM) of 0.558 and a relative viability (VX-11e + Phenformin; first compound 1.265 µM) of 0.48. For the same cell line, the relative viability (VX-11e + Phenformin; first compound 4 µM) was 0.656, the relative viability (VX-11e + AZD7762; first compound 0.04 µM) was 0.812 and the relative viability (VX-11e + AZD7762; first compound 0.1265 µM) was 0.969. It also gave a relative viability (VX-11e + AZD7762; first compound 0.4 µM) of 0.82, a relative viability (VX-11e + AZD7762; first compound 1.265 µM) of 0.671 and a relative viability (VX-11e + AZD7762; first compound 4 µM) of 0.671. The relative viability (VX-11e + Pemetrexed; first compound 0.04 µM) was 0.861, the relative viability (VX-11e + Pemetrexed; first compound 0.1265 µM) was 0.936 and the relative viability (VX-11e + Pemetrexed; first compound 0.4 µM) was 0.962. For the same cell line, the relative viability (VX-11e + Pemetrexed; first compound 1.265 µM) was 0.76, the relative viability (VX-11e + Pemetrexed; first compound 4 µM) was 0.59 and the relative viability (VX-11e + Decitabine; first compound 0.04 µM) was 0.641. For the same cell line, the relative viability (VX-11e + Decitabine; first compound 0.1265 µM) was 0.648, the relative viability (VX-11e + Decitabine; first compound 0.4 µM) was 0.648 and the relative viability (VX-11e + Decitabine; first compound 1.265 µM) was 0.599. For the same cell line, the relative viability (VX-11e + Decitabine; first compound 4 µM) was 0.573, the relative viability (VX-11e + Vorinostat; first compound 0.04 µM) was 0.994 and the relative viability (VX-11e + Vorinostat; first compound 0.1265 µM) was 0.939. The relative viability (VX-11e + Vorinostat; first compound 0.4 µM) was 0.736, the relative viability (VX-11e + Vorinostat; first compound 1.265 µM) was 0.713 and the relative viability (VX-11e + Vorinostat; first compound 4 µM) was 0.751. For the same cell line, the relative viability (VX-11e + Olaparib; first compound 0.04 µM) was 0.588, the relative viability (VX-11e + Olaparib; first compound 0.1265 µM) was 0.594 and the relative viability (VX-11e + Olaparib; first compound 0.4 µM) was 0.457. For the same cell line, the relative viability (VX-11e + Olaparib; first compound 1.265 µM) was 0.545 and the relative viability (VX-11e + Olaparib; first compound 4 µM) was 0.533.
In the case of NCI-H1623, the relative viability (VX-11e; 0.04 µM) is reported as 0.967, the relative viability (VX-11e; 0.1265 µM) is reported as 1.04 and the relative viability (VX-11e; 0.4 µM) is reported as 0.724. The relative viability (VX-11e; 1.265 µM) was 0.678, the relative viability (VX-11e; 4 µM) was 0.561 and the relative viability (VX-11e + Luminespib; first compound 0.04 µM) was 0.434. For the same cell line, the relative viability (VX-11e + Luminespib; first compound 0.1265 µM) was 0.492, the relative viability (VX-11e + Luminespib; first compound 0.4 µM) was 0.3 and the relative viability (VX-11e + Luminespib; first compound 1.265 µM) was 0.48. It also gave a relative viability (VX-11e + Luminespib; first compound 4 µM) of 0.337, a relative viability (VX-11e + Foretinib; first compound 0.04 µM) of 0.856 and a relative viability (VX-11e + Foretinib; first compound 0.1265 µM) of 0.934. The relative viability (VX-11e + Foretinib; first compound 0.4 µM) was 0.588, the relative viability (VX-11e + Foretinib; first compound 1.265 µM) was 0.619 and the relative viability (VX-11e + Foretinib; first compound 4 µM) was 0.473. For the same cell line, the relative viability (VX-11e + OSI-027; first compound 0.04 µM) was 0.43, the relative viability (VX-11e + OSI-027; first compound 0.1265 µM) was 0.446 and the relative viability (VX-11e + OSI-027; first compound 0.4 µM) was 0.423. The relative viability (VX-11e + OSI-027; first compound 1.265 µM) was 0.307, the relative viability (VX-11e + OSI-027; first compound 4 µM) was 0.278 and the relative viability (VX-11e + Tozasertib; first compound 0.04 µM) was 0.396. The relative viability (VX-11e + Tozasertib; first compound 0.1265 µM) was 0.426, the relative viability (VX-11e + Tozasertib; first compound 0.4 µM) was 0.418 and the relative viability (VX-11e + Tozasertib; first compound 1.265 µM) was 0.38. For the same cell line, the relative viability (VX-11e + Tozasertib; first compound 4 µM) was 0.23, the relative viability (VX-11e + Dasatinib; first compound 0.04 µM) was 0.526 and the relative viability (VX-11e + Dasatinib; first compound 0.1265 µM) was 0.624. The relative viability (VX-11e + Dasatinib; first compound 0.4 µM) was 0.369, the relative viability (VX-11e + Dasatinib; first compound 1.265 µM) was 0.457 and the relative viability (VX-11e + Dasatinib; first compound 4 µM) was 0.398. The relative viability (VX-11e + Phenformin; first compound 0.04 µM) was 0.53, the relative viability (VX-11e + Phenformin; first compound 0.1265 µM) was 0.623 and the relative viability (VX-11e + Phenformin; first compound 0.4 µM) was 0.433. For the same cell line, the relative viability (VX-11e + Phenformin; first compound 1.265 µM) was 0.546 and the relative viability (VX-11e + Phenformin; first compound 4 µM) was 0.409.
